According to US12427144B2, “Compounds and methods for the targeted degradation of androgen receptor” (Arvinas Operations, Inc., priority 2019, dated 2025):

Biological target: T1, Androgen Receptor (AR) (Homo sapiens, UniProt P10275)
T1 construct: endogenous in cells; host or cells: VCaP
T1 sequence (P10275 1-920): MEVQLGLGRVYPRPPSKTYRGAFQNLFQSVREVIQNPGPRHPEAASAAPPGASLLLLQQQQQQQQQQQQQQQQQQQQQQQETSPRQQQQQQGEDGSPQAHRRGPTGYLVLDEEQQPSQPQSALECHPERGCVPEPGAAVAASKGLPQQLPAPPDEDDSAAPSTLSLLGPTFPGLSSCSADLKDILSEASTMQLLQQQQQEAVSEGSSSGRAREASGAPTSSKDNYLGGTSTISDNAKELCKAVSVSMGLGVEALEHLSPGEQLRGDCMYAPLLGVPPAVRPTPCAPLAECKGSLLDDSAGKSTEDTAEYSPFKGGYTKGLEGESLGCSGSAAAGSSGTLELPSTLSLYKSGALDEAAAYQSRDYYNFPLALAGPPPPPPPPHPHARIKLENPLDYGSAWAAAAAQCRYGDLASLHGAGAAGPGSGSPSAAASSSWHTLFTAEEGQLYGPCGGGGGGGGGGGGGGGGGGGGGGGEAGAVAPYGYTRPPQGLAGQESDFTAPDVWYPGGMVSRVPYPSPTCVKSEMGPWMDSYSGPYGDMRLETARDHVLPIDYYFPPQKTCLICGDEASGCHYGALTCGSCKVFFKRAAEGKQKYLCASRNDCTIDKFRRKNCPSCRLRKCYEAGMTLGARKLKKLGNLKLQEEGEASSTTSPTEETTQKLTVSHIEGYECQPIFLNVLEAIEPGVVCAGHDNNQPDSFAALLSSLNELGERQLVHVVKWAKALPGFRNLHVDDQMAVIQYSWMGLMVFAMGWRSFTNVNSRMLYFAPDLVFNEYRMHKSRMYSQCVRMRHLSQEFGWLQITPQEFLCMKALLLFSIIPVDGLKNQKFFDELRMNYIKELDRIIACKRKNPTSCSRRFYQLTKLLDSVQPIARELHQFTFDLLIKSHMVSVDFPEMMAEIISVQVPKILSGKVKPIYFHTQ
Assay: AR immunofluorescence staining, high content imager, VCaP cells
Assay type: cell-based
Conditions: for DC50: AR degradation by immunofluorescence; for Dmax: maximal AR degradation
Method: AR Immunofluorescence Staining of Cells for the High Content Imager was performed as follows: Following treatment of the cells with compound (using the central 60 wells of a 96-well plate), media was removed by aspiration, followed by addition of 50 μL per well of 4% paraformaldehyde (PFA) in PBS supplemented with 2 mM MgCl2 and 2 mM CaCl2. Fixed cells were incubated at RT for 15 minutes. For particularly low adherence cell lines (e.g., VCaP), a 2× solution of 8% PFA was added directly to wells instead. Cells were washed once with 200 μL PBS/well. To permeabilize cells 50 μL/well of 0.1% Triton X-100 in PBS was added and incubated for 5 minutes. Cells were washed once with 200 μL PBSS/well. 100 μL/well of Licor Odyssey Blocking Buffer was added for 1 hour at 20° C. Wells were aspirated and AR antibody (1:1000 in Licor Odyssey blocking buffer; 50 μL/well; CST 5153s) was added. Plates were incubated overnight at 4° C. Plates were washed 3 times with 200 EL PBS/well. The appropriate secondary antibody was added (50 μL/well; diluted in Licor Odyssey blocking buffer) and incubated for 1 hour at RT in the dark as prepared below using Anti-rabbit FITC (1:5000; […]) and Phalloidin-Alexafluor 648 (1:500; […]). Cells were washed once with 200 μL PBS/well. 50 μL DAPI or Hoechst 33342 diluted 1:1000 in Licor Odyssey blocking buffer was added to the wells. Cells were washed 3 times with 200 μL PBS/well. The plates were covered with a clear plastic sealer and refrigerated in the dark until ready to analyze. The cells were analyzed using a Molecular Devices IXM high content imager and analyzed using Molecular Devices metaXpress software suite.

Row | Compound | DC50 | Dmax
1 | N#Cc1ccc(O[C@H]2CC[C@H](NC(=O)c3ccc(N4CCC(CN5CCN(c6ccc(C(=O)NC7CCC(=O)NC7=O)nn6)CC5)CC4)nn3)CC2)cc1Cl (stereo partly shown) [Compound 28, N-[4-(3-chloro-4-cyano-phenoxy)cyclohexyl]-6-[4-[[4-[6-[(2,6-dioxo-3-piperidyl)carbamoyl]pyridazin-3-yl]piperazin-1-yl]methyl]-1-piperidyl]pyridazine-3-carboxamide] | < 1 nM | ≥ 70%
2 | N#Cc1ccc(O[C@H]2CC[C@H](NC(=O)c3ccc(N4CCC(CN5CCN(c6cccc(C(=O)NC7CCC(=O)NC7=O)c6)CC5)CC4)nn3)CC2)cc1Cl (stereo partly drawn) [Compound 29, N-((1R,4R)-4-(3-chloro-4-cyanophenoxy)cyclohexyl)-6-(4-((4-(3-((2,6-dioxopiperidin-3-yl)carbamoyl)phenyl)piperazin-1-yl)methyl)piperidin-1-yl)pyridazine-3-carboxamide] | < 1 nM | < 50%
3 | N#Cc1ccc(O[C@H]2CC[C@H](NC(=O)c3ccc(N4CCC(CN5CCN(c6ccc(C(=O)NC7CCC(=O)NC7=O)cn6)CC5)CC4)nn3)CC2)cc1Cl (stereo partly drawn) [Compound 30, N-((1R,4R)-4-(3-chloro-4-cyanophenoxy)cyclohexyl)-6-(4-((4-(5-((2,6-dioxopiperidin-3-yl)carbamoyl)pyridin-2-yl)piperazin-1-yl)methyl)piperidin-1-yl)pyridazine-3-carboxamide] | < 1 nM | ≥ 70%
4 | CN(C(=O)c1ccc(N2CCN(CC3CCN(c4ccc(C(=O)N[C@H]5CC[C@H](Oc6ccc(C#N)c(Cl)c6)CC5)nn4)CC3)CC2)cc1F)C1CCC(=O)NC1=O (stereo partly drawn) [Compound 31, N-((1R,4R)-4-(3-chloro-4-cyanophenoxy)cyclohexyl)-6-(4-((4-(4-((2,6-dioxopiperidin-3-yl)(methyl)carbamoyl)-3-fluorophenyl)piperazin-1-yl)methyl)piperidin-1-yl)pyridazine-3-carboxamide] | < 1 nM | 50 to 70%
5 | CCN(C(=O)c1ccc(N2CCN(CC3CCN(c4ccc(C(=O)N[C@H]5CC[C@H](Oc6ccc(C#N)c(Cl)c6)CC5)nn4)CC3)CC2)cc1)C1CCC(=O)NC1=O (stereo partly drawn) [Compound 32, N-((1R,4R)-4-(3-chloro-4-cyanophenoxy)cyclohexyl)-6-(4-((4-(4-((2,6-dioxopiperidin-3-yl)(ethyl)carbamoyl)phenyl)piperazin-1-yl)methyl)piperidin-1-yl)pyridazine-3-carboxamide] | ≥ 100 nM | < 50%
6 | Cc1cc(O[C@H]2C(C)(C)[C@H](NC(=O)c3ccc(N4CCC(CN5CCN(c6cnc(C(=O)N[C@H]7CCC(=O)NC7=O)cn6)CC5)CC4)cc3)C2(C)C)cc(C)c1C#N [Compound 33, 5-[4-[[1-[4-[[3-(4-cyano-3,5-dimethyl-phenoxy)-2,2,4,4-tetramethyl-cyclobutyl]carbamoyl]phenyl]-4-piperidyl]methyl]piperazin-1-yl]-N-[(3S)-2,6-dioxo-3-piperidyl]pyrazine-2-carboxamide] | < 1 nM | ≥ 70%
7 | COc1cc(O[C@H]2C(C)(C)[C@H](NC(=O)c3ccc(N4CCC5(CC4)CN([C@H]4C[C@H](Oc6ccc(C(=O)N[C@H]7CCC(=O)NC7=O)c(OC)c6)C4)CCO5)cc3)C2(C)C)ccc1C#N [Compound 34, 4-[3-[9-[4-[[3-(4-cyano-3-methoxy-phenoxy)-2,2,4,4-tetramethyl-cyclobutyl]carbamoyl]phenyl]-1-oxa-4,9-diazaspiro[5.5]undecan-4-yl]cyclobutoxy]-N-[(3S)-2,6-dioxo-3-piperidyl]-2-methoxy-benzamide] | < 1 nM | ≥ 70%
8 | COc1cc(O[C@H]2C[C@H](N3CCOC4(CCN(c5ccc(C(=O)N[C@H]6C(C)(C)[C@H](Oc7cc(C)c(C#N)c(C)c7)C6(C)C)cc5)CC4)C3)C2)ccc1C(=O)N[C@H]1CCC(=O)NC1=O [Compound 35, 4-[3-[9-[4-[[3-(4-cyano-3,5-dimethyl-phenoxy)-2,2,4,4-tetramethyl-cyclobutyl]carbamoyl]phenyl]-1-oxa-4,9-diazaspiro[5.5]undecan-4-yl]cyclobutoxy]-N-[(3S)-2,6-dioxo-3-piperidyl]-2-methoxy-benzamide] | < 1 nM | ≥ 70%
9 | CC1(C)[C@H](NC(=O)c2ccc(C#CC3CCN(C4CCN(c5ccc(C(=O)N[C@H]6CCC(=O)NC6=O)c(F)c5)CC4)CC3)cc2)C(C)(C)[C@H]1Oc1ccc(C#N)c(Cl)c1 [Compound 36, N-[(3S)-2,6-dioxopiperidin-3-yl]-2-fluoro-4-{4-[2-(4-{[(1r,3r)-3-(3-chloro-4-cyanophenoxy)-2,2,4,4-tetramethylcyclobutyl]carbamoyl}phenyl)ethynyl]-[1,4′-bipiperidin]-1′-yl}benzamide] | < 1 nM | ≥ 70%
10 | COc1cc(O[C@H]2C(C)(C)[C@H](NC(=O)c3ccc(N4CCC(CN5CCN(c6cnc(C(=O)N[C@H]7CCC(=O)NC7=O)cn6)CC5)CC4)cc3)C2(C)C)ccc1C#N [Compound 37, 5-[4-[[1-[4-[[3-(4-cyano-3-methoxy-phenoxy)-2,2,4,4-tetramethyl-cyclobutyl]carbamoyl]phenyl]-4-piperidyl]methyl]piperazin-1-yl]-N-[(3S)-2,6-dioxo-3-piperidyl]pyrazine-2-carboxamide] | < 1 nM | ≥ 70%
11 | COc1cc(O[C@H]2C(C)(C)[C@H](NC(=O)c3ccc(N4CCC(CN5CCN(c6cnc(C(=O)N[C@H]7CCC(=O)NC7=O)nc6)CC5)CC4)cc3)C2(C)C)ccc1C#N [Compound 39, 5-(4-((1-(4-(((1r,3r)-3-(4-cyano-3-methoxyphenoxy)-2,2,4,4-tetramethylcyclobutyl)carbamoyl)phenyl)piperidin-4-yl)methyl)piperazin-1-yl)-N—((S)-2,6-dioxopiperidin-3-yl)pyrimidine-2-carboxamide] | < 1 nM | ≥ 70%
12 | COc1cc(O[C@H]2C(C)(C)[C@H](NC(=O)c3ccc(N4CCC(CN5CCN(c6ccc(C(=O)N[C@H]7CCC(=O)NC7=O)nc6)CC5)CC4)cc3)C2(C)C)ccc1C#N [Compound 40, 5-[4-[[1-[4-[[3-(4-cyano-3-methoxy-phenoxy)-2,2,4,4-tetramethyl-cyclobutyl]carbamoyl]phenyl]-4-piperidyl]methyl]piperazin-1-yl]-N-[(3S)-2,6-dioxo-3-piperidyl]pyridine-2-carboxamide] | < 1 nM | ≥ 70%
13 | Cc1cc(O[C@H]2C(C)(C)[C@H](NC(=O)c3ccc(N4CCC(CN5CCN(c6ccc(C(=O)N[C@H]7CCC(=O)NC7=O)nc6)CC5)CC4)cc3)C2(C)C)cc(C)c1C#N [Compound 41, 5-[4-[[1-[4-[[3-(4-cyano-3,5-dimethyl-phenoxy)-2,2,4,4-tetramethyl-cyclobutyl]carbamoyl]phenyl]-4-piperidyl]methyl]piperazin-1-yl]-N-[(3S)-2,6-dioxo-3-piperidyl]pyridine-2-carboxamide] | < 1 nM | ≥ 70%
14 | COc1cc(O[C@H]2C(C)(C)[C@H](NC(=O)c3ccc(N4CCC(CN5CCN(c6ccc(C(=O)N[C@H]7CCC(=O)NC7=O)cn6)CC5)CC4)cc3)C2(C)C)ccc1C#N [Compound 42, N-[(3S)-2,6-dioxopiperidin-3-yl]-6-(4-{[1-(4-{[(1r,3r)-3-(4-cyano-3-methoxyphenoxy)-2,2,4,4-tetramethylcyclobutyl]carbamoyl}phenyl)piperidin-4-yl]methyl}piperazin-1-yl)pyridine-3-carboxamide] | < 1 nM | ≥ 70%
